Experimental data reported in patent publication US20260183301A1, “TREATING DISEASES AND DISORDERS WITH IRAK4-MODIFYING COMPOUNDS” (Curis, Inc., priority 2022, published 2026).

Assays:
[1] = Phase 1 study in AML or high risk MDS: safety (DLT); format: in vivo
Procedure: This study will be conducted in 2 parts: an initial dose escalation and dose expansion phase. […] Three patients with AML or MDS will be enrolled at the designated dose. If none of the first 3 patients experience a DLT during the first cycle, patients may be enrolled into the next higher dose level of 300 mg bid until a safe and effective RP2D is established.
This study is expected to enroll approximately 18 patients to establish the initial RP2D.
The major study inclusion and exclusion criteria are as follows: Relapsed or refractory AML (primary or secondary, including treatment-related) after at least one standard treatment (including chemotherapy, re-induction therapy or stem cell transplantation) based on the assessment of the investigator or high/very high risk relapsed/refractory MDS (IPSS—R criteria), following at least 6 cycles of hypomethylating agents [HMA] or evidence of early progression.

[2] = Phase I dose escalation trial in NHL: safety and tolerance (adverse effects, DLT)
Procedure: Seven dosing cohorts included 50 and 100 mg QD, and 50, 100, 200, 300, or 400 mg BID of daily continuous oral monotherapy in 21-Day cycles. Objective included safety and tolerance (primary), pk/pd and early efficacy (secondary), and biomarker correlations (exploratory). 31 patients with resistant or refractory, advanced NHL have been enrolled.

[3] = 200 mg BID, N = 5, [E] not defined

For `Cc1cc(-c2nc(C(=O)Nc3cc4oc(N5CCOCC5)nc4nc3N3CC[C@@H](O)C3)co2)ccn1` [Compound 1, emavusertib], the DLT ([1]; Cohort 1, 200 mg BID, 3 patients with hr-MDS, 1st cycle) was “No DLT”, the “dose reduction for Gr. 3 dizziness” value ([1]; Cohort 1, 200 mg BID, C2) was 1 and the DLT ([1]; Cohort 2, 300 mg BID, first 3 patients) was “No DLT”. For the same compound, the “Back pain, All Grades” value ([2]; 200 mg BID (n = 5)) was 20%, the “Back pain, Grade 3 or 4” value ([2]; 200 mg BID (n = 5)) was 0% and the “Constipation, All Grades” value ([2]; 200 mg BID (n = 5)) was 20%. The “Constipation, Grade 3 or 4” value ([2]; 200 mg BID (n = 5)) was 0%, the “Cough, All Grades” value ([2]; 200 mg BID (n = 5)) was 40% and the “Cough, Grade 3 or 4” value ([2]; 200 mg BID (n = 5)) was 0%. For the same compound, the “Dehydration, All Grades” value ([2]; 200 mg BID (n = 5)) was 20%, the “Dehydration, Grade 3 or 4” value ([2]; 200 mg BID (n = 5)) was 0% and the “Diarrhea, All Grades” value ([2]; 200 mg BID (n = 5)) was 20%. For the same compound, the “Diarrhea, Grade 3 or 4” value ([2]; 200 mg BID (n = 5)) was 0%, the “Dizziness, All Grades” value ([2]; 200 mg BID (n = 5)) was 0% and the “Dizziness, Grade 3 or 4” value ([2]; 200 mg BID (n = 5)) was 0%. For the same compound, the “Dyspnoe, All Grades” value ([2]; 200 mg BID (n = 5)) was 20%, the “Dyspnoe, Grade 3 or 4” value ([2]; 200 mg BID (n = 5)) was 0% and the “Fatigue, All Grades” value ([2]; 200 mg BID (n = 5)) was 40%. For the same compound, the “Fatigue, Grade 3 or 4” value ([2]; 200 mg BID (n = 5)) was 0%, the “Headache, All Grades” value ([2]; 200 mg BID (n = 5)) was 20% and the “Headache, Grade 3 or 4” value ([2]; 200 mg BID (n = 5)) was 0%. For the same compound, the “Insomnia, All Grades” value ([2]; 200 mg BID (n = 5)) was 20%, the “Insomnia, Grade 3 or 4” value ([2]; 200 mg BID (n = 5)) was 0% and the “Muscle weakness, All Grades” value ([2]; 200 mg BID (n = 5)) was 20%. For the same compound, the “Muscle weakness, Grade 3 or 4” value ([2]; 200 mg BID (n = 5)) was 20%, the “Myalgia, All Grades” value ([2]; 200 mg BID (n = 5)) was 40% and the “Myalgia, Grade 3 or 4” value ([2]; 200 mg BID (n = 5)) was 0%. The “Nausea, All Grades” value ([2]; 200 mg BID (n = 5)) was 20%, the “Nausea, Grade 3 or 4” value ([2]; 200 mg BID (n = 5)) was 0% and the “Oedema, All Grades” value ([2]; 200 mg BID (n = 5)) was 25%. For the same compound, the “Oedema, Grade 3 or 4” value ([2]; 200 mg BID (n = 5)) was 0%, the “Peripheral sensory neuropathy, All Grades” value ([2]; 200 mg BID (n = 5)) was 0% and the “Peripheral sensory neuropathy, Grade 3 or 4” value ([2]; 200 mg BID (n = 5)) was 0%. The “Rhabdomyolysis, All Grades” value ([2]; 200 mg BID (n = 5)) was 0%, the “Rhabdomyolysis, Grade 3 or 4” value ([2]; 200 mg BID (n = 5)) was 0% and the “Upper respiratory infection, All Grades” value ([2]; 200 mg BID (n = 5)) was 40%. For the same compound, the “Upper respiratory infection, Grade 3 or 4” value ([2]; 200 mg BID (n = 5)) was 20%, the “Vomiting, All Grades” value ([2]; 200 mg BID (n = 5)) was 20% and the “Vomiting, Grade 3 or 4” value ([2]; 200 mg BID (n = 5)) was 0%. For the same compound, the “Anemia, All Grades” value ([2]; 200 mg BID, N = 5) was 1 (20.0) n (%), the “Anemia, Grade 3 or Higher” value ([2]; 200 mg BID, N = 5) was 0 n (%) and the “Neutropenia, All Grades” value ([2]; 200 mg BID, N = 5) was 2 (40.0) n (%). For the same compound, the “Neutropenia, Grade 3 or Higher” value ([2]; 200 mg BID, N = 5) was 2 (40.0) n (%), the “Thrombocytopenia, All Grades” value ([2]; 200 mg BID, N = 5) was 0 n (%) and the “Thrombocytopenia, Grade 3 or Higher” value ([2]; 200 mg BID, N = 5) was 0 n (%). For the same compound, the “Anemia, All Grades [E]” value [2, 3] was “[1]”, the “Neutropenia, All Grades [E]” value [2, 3] was “[3]” and the “Neutropenia, Grade 3 or Higher [E]” value [2, 3] was “[2]”. For the same compound, the “Back pain, All Grades” value ([2]; 300 mg BID (n = 6)) was 0%, the “Back pain, Grade 3 or 4” value ([2]; 300 mg BID (n = 6)) was 0% and the “Constipation, All Grades” value ([2]; 300 mg BID (n = 6)) was 0%. The “Constipation, Grade 3 or 4” value ([2]; 300 mg BID (n = 6)) was 0%, the “Cough, All Grades” value ([2]; 300 mg BID (n = 6)) was 0% and the “Cough, Grade 3 or 4” value ([2]; 300 mg BID (n = 6)) was 0%. The “Dehydration, All Grades” value ([2]; 300 mg BID (n = 6)) was 0%, the “Dehydration, Grade 3 or 4” value ([2]; 300 mg BID (n = 6)) was 0% and the “Diarrhea, All Grades” value ([2]; 300 mg BID (n = 6)) was 40%. For the same compound, the “Diarrhea, Grade 3 or 4” value ([2]; 300 mg BID (n = 6)) was 0%, the “Dizziness, All Grades” value ([2]; 300 mg BID (n = 6)) was 0% and the “Dizziness, Grade 3 or 4” value ([2]; 300 mg BID (n = 6)) was 0%. The “Dyspnoe, All Grades” value ([2]; 300 mg BID (n = 6)) was 0%, the “Dyspnoe, Grade 3 or 4” value ([2]; 300 mg BID (n = 6)) was 0% and the “Fatigue, All Grades” value ([2]; 300 mg BID (n = 6)) was 0%. For the same compound, the “Fatigue, Grade 3 or 4” value ([2]; 300 mg BID (n = 6)) was 0%, the “Headache, All Grades” value ([2]; 300 mg BID (n = 6)) was 0% and the “Headache, Grade 3 or 4” value ([2]; 300 mg BID (n = 6)) was 0%. For the same compound, the “Insomnia, All Grades” value ([2]; 300 mg BID (n = 6)) was 0%, the “Insomnia, Grade 3 or 4” value ([2]; 300 mg BID (n = 6)) was 0% and the “Muscle weakness, All Grades” value ([2]; 300 mg BID (n = 6)) was 0%. For the same compound, the “Muscle weakness, Grade 3 or 4” value ([2]; 300 mg BID (n = 6)) was 0%, the “Myalgia, All Grades” value ([2]; 300 mg BID (n = 6)) was 0% and the “Myalgia, Grade 3 or 4” value ([2]; 300 mg BID (n = 6)) was 0%. For the same compound, the “Nausea, All Grades” value ([2]; 300 mg BID (n = 6)) was 17%, the “Nausea, Grade 3 or 4” value ([2]; 300 mg BID (n = 6)) was 0% and the “Oedema, All Grades” value ([2]; 300 mg BID (n = 6)) was 0%.
